In patent US10563197B2, “Use of a combination of Dbait molecule and PARP inhibitors to treat cancer” (INSTITUT CURIE, priority 2015, dated 2020):

Assays:
Assay type in all cases: cell-based, human
MCF12A = test: Cell survival, trypan blue counting; details: 4.80 μM of AsiDNA and/or 0.1 μM of Ola; day 6 after treatment
Method: (§1) Cells were grown according to the supplier's instructions. Cell lines were maintained at 37° C. in a humidified atmosphere at 5% CO2.
(§2) AsiDNA or PARPi cytotoxicity was measured by relative survival and cell death quantification. Adherent cells were seeded in 24-well culture plates at appropriate densities and incubated 24 hours at 37° C. before AsiDNA and/or PARPi addition. Cells were harvested day 6aftertreatment, stained with 0.4% trypan blue (Sigma Aldrich, Saint-Louis, USA) and counted with a Burker chamber. Cell survival was calculated as ratio of living treated cells to living mock-treated cells. Cell death was calculated as the number of dead cells on the total number of counted cells. Additivity of the toxicity was calculated by the product of cell survivals to AsiDNA and cell survivals to PARPi.

SK28 Lsh CTL = test: Cell survival, trypan blue counting; details: 4.80 μM of AsiDNA and/or 0.1 μM of Ola; day 6 after treatment
Jurkat = test: Cell survival, trypan blue counting; details: 4.80 μM of AsiDNA and/or 0.1 μM of Ola; day 6 after treatment
Method: as §1, §2

HeLa CTL KD = test: Cell survival, trypan blue counting; details: 4.80 μM of AsiDNA and/or 0.1 μM of Ola; day 6 after treatment
Method: as §1, §2

BC227 = test: Cell survival, trypan blue counting; details: 4.80 μM of AsiDNA and/or 0.1 μM of Ola; day 6 after treatment; listed as Ola
Method: as §1, §2

MO59J = test: Cell survival, trypan blue counting; details: 4.80 μM of AsiDNA and/or 0.1 μM of Ola; day 6 after treatment
Method: as §1, §2

3 BC cell lines = test: Combined treatment survival in BC cell lines (FIG. 6, 7, 12); details: FIG. 7
Method: Efficacy of AsiDNA (4. 8 μM), olaparib (0, 0.1 and 1 μM) or both was monitored 6 days after treatment by cell counting after trypan blue labeling. (A) Percentage of living cells relative to non-treated condition (NT). (B) Percentage of dead cells. Data are expressed as mean+Sc.D. of at least 2 independent experiments. Dotted lines indicate the calculated cell survivals if additivity between AsiDNA and olaparib.
Efficacy of AsiDNA (4.8 μM), veliparib (0, 10 and 50 μM) or both was monitored 6 days after treatment by trypan blue staining. (A) Percentage of living cells relative to non-treated condition (NT). (B) Percentage of dead cells. Dotted lines indicate the calculated cell survivals if additivity between AsiDNA and veliparib.
The inventors monitored cell survival to combined treatment of 3 BC and 2 non-tumor cell lines with different sensitivities to Ola and AsiDNA alone (FIG. 6; Table 1). […] However, the combination remained more efficient or at least equal to the expected additive effect at all the tested doses. […] In contrast, the normal cells were insensitive to both, the combined and the single treatments with AsiDNA and Ola (FIG. 6; Table 1).

Hep2 = test: Cell survival, trypan blue counting; details: 4.80 μM of AsiDNA and/or 0.1 μM of Ola; day 6 after treatment
Method: as §1, §2

O=C(c1cc(Cc2n[nH]c(=O)c3ccccc23)ccc1F)N1CCN(C(=O)C2CC2)CC1 [Olaparib, 4-[(3-[(4-cyclopropylcarbonyl)piperazin-4-yl]carbonyl)-4-fluorophenyl]methyl(2H)-phthalazin-1-one]
Survival (%/NT) (MCF12A): 88.5 %/NT | Survival (%/NT) (SK28 Lsh CTL): 80.6 %/NT | Survival (%/NT) (Jurkat): 68.4 %/NT | Survival (%/NT) (HeLa CTL KD): 97.2 %/NT | Survival (%/NT) (BC227): 75.3 %/NT | Survival (%/NT) (MO59J): 87.5 %/NT | dose dependence of efficacy of single treatments (3 BC cell lines): dose dependent | Survival (%/NT) (Hep2): 101 %/NT
